Assay results from patent US20120028921A1, “METHODS AND COMPOSITIONS USING OXIDIZED PHOSPHOLIPIDS” (The Johns Hopkins University, priority 2004, published 2012).
Entries after “also recorded” stand apart in the source; their conditions may differ.

How the values were obtained:
PKC = PKC activation: phospho-PKC substrate immunoblot and in vitro kinase assay of lysates; assay type: cell-based, human
Protocol: (§1) Analysis of PKC and PKA activities. After stimulation with OxPAPC (20 μg/ml, 15 min), HPAEC were lysed, cell lysates were clarified by centrifugation (14000 g, 5 min, +4 C.°), and PKA and PKC activities were measured using in vitro kinase assay kits obtained from Promega Corp. (Madison, Wis.) according to manufacturer protocol. Additionally, OxPAPC-induced PKC and PKA activation in HPAEC cultures was determined by immunoblotting of whole cell lysates with phospho-PKC substrate- and phospho-PKA substrate-specific antibodies that recognize PKA- or PKC-phosphorylated sites in the EC endogenous proteins.

[1] = test system: human pulmonary endothelial cells (HPAEC); assay: Transendothelial electrical resistance (TER), ECIS system; assay type: cell-based; conditions: for effect of pretreatment on OxPAPC-induced TER increase: BHT 5 μM 10 min preincubated with OxPAPC, toxin B 100 ng/ml, Y27632 5 μM, 1 hr; for co-elution with TER-increasing activity in HPLC-MS of fraction 2: reversed phase HPLC fractions tested on TER; for effect of synthetic fragmented phospholipids on TER: prepared by chemical synthesis; for effect on transendothelial electrical resistance (TER): agent alone, phospholipids up to 20 μg/ml
Protocol: Human pulmonary endothelial cells (HPAEC) were cultured and transfected with cDNAs as described previously (Birukov et al., 2002). Lipid oxidation and analysis of oxidation products by positive ion electrospray mass spectrometry (ESI-MS) was performed as described previously (Watson et al., 1997, Leitinger et al. 1999 and, Bochov et al. 2002). Measurements of transendothelial electrical resistance were performed using electrical cell substrate impedance-sensing (ECIS) system as described elsewhere (Garcia et al., 2001 and Birukova et al., 2004). Transient transfections and siRNA-based protein depletion of small GTPases were performed as described elsewhere (Birukov et al. 2002, Birukova et al., 2004 and Birukova et al., 2004a). Rac, Cdc42 and Rho activation assays were performed using assay kits from Upstate Biotechnology (Lake Placid, N.Y.) (Garcia et al., 2001 and Birukova et al., 2004). Subcellular protein fractionation, western blot analyses and densitometric analyses were performed from at least 3 experiments as described (Birukova et al., 2004). Immunofluorescent staining of HPAEC was performed as previously described (Birukov et al., 2002, Birukova et al., 2004). ANOVAs and a post hoc Student-Newman-Keuls test were used to compare the means of two or more different treatment groups. Results were expressed as the mean±SE. Differences between two groups were considered statistically significant with a value of P<0.05.

Erk-1,2 = Erk-1,2 MAP kinase cascade activation, phospho-specific immunoblotting; assay type: cell-based, human; conditions: for effect on OxPAPC-induced Erk-1,2 cascade activation/phosphorylation: UO-126 5 μM, genistein 100 μM, PKC peptide inhibitor 20 μM, BHT preincubated with OxPAPC
Protocol: (§2) Western immunoblotting. Protein extracts were separated by SDS-PAGE, transferred to polyvinylidene difluoride (PVDF) membranes (30 V for 18 h or 90 V for 2 h), and the membranes were incubated with specific antibodies of interest. Equal protein loadings were verified by reprobing membranes with anti-Erk, anti-Fax, or anti-paxillin antibodies. Immunoreactive proteins were detected with the enhanced chemiluminescent detection system (ECL) according to the manufacturer's directions (New England BioLabs, Beverly, Mass.). The relative intensities of the protein bands were quantified by scanning densitometry using Image Quant 5.2 (Molecular Dynamics, Piscataway, N.J.) software.
(§3) Activation of MAP kinase pathways and characterization of tyrosine phosphorylation. Activation of MAP kinase cascade was by monitored by western immunoblotting techniques using phosphospecific antibodies, which are described in Materials section and detect activated form of protein kinases of the MAP kinase cascade. Analysis of the total protein tyrosine phosphorylation was performed by immunoblotting with phosphotyrosine antibody.

[2] = test system: protein tyrosine phosphorylation; assay: Total protein tyrosine phosphorylation, phosphotyrosine immunoblot; assay type: cell-based, human; conditions: for effect on OxPAPC-induced protein tyrosine phosphorylation: genistein 100 μM, BHT preincubated with OxPAPC
Protocol: as §2, §3

FAK = FAK Tyr576 phosphorylation, immunoblot; assay type: cell-based, human; conditions: PP-2 5 μM pretreatment
Protocol: as §2

paxillin = assay: Paxillin Tyr118 phosphorylation, immunoblot; assay type: cell-based, human; conditions: PP-2 5 μM pretreatment
Protocol: as §2

[3] = test system: human pulmonary endothelial cells (HPAEC); conditions: literature (Goggel et al. 2004); cited from earlier work
p38 = p38 MAP kinase phosphorylation, immunoblotting; assay type: cell-based, human; conditions: 20 μg/ml
Protocol: as §2, §3

JNK = JNK MAP kinase phosphorylation, immunoblotting; assay type: cell-based, human
Protocol: as §2, §3

PKA = PKA activation: phospho-PKA substrate immunoblot and in vitro kinase assay of lysates; assay type: cell-based, human; conditions: phospho-PKA substrate immunoblot
Protocol: as §1

[4] = HPAEC monolayers, thrombin 50 nM

With `CN(C)CCCn1cc(C2=C(c3c[nH]c4ccccc34)C(=O)NC2=O)c2ccccc21` [bisindolmaleimide I] the “effect on OxPAPC-induced PKC activity” value (PKC; in vitro kinase assay, preincubation 1 hour) was “attenuated OxPAPC-induced PKC activation to a lesser extent”.
With `C[C@@H](N)[C@H]1CC[C@H](C(=O)Nc2ccncc2)CC1` [Y27632] the “effect of pretreatment on OxPAPC-induced TER increase” value [1] was “not”.
For `CCCCC/C=C\CC1C=CC(=O)/C1=C/C1OC1CCCC(=O)O[C@H](COC(=O)CCCCCCCCCCCCCCC)COP(=O)([O-])OCC[N+](C)(C)C` (stereo partly drawn) [PECPC, 1-palmitoyl-2-(epoxycyclopentenone)-sn-glycero-3-phosphorylcholine], the “co-elution with TER-increasing activity in HPLC-MS of fraction 2” value [1] was “co-eluted with the fraction exhibiting major barrier-protective activity; also recorded: co-eluted with TER increasing activity”.
With `O=c1c(-c2ccc(O)cc2)coc2cc(O)cc(O)c12` [genistein] the “effect on OxPAPC-induced Erk-1,2 cascade activation/phosphorylation” value (Erk-1,2) was “attenuated” and the “effect on OxPAPC-induced protein tyrosine phosphorylation” value [2] was “abolished”.
With lysoPC the “effect of synthetic fragmented phospholipids on TER” value (from here on “effect … on TER”) [1] was “significantly and concentration-dependently decreased TER”.
For `CCCCCCCCCCCCCC(=O)OC[C@H](COP(=O)([O-])OCC[N+](C)(C)C)OC(=O)CCCCCCCCCCCCC` [DMPC, dimyristoyl phosphatidyl choline], the “effect on transendothelial electrical resistance (TER)” value (“effect … (TER)” below) [1, 4] was “did not exhibit significant effects”.
For `CCCCCCCCCCCCC/C=C/[C@@H](O)[C@@H](N)COP(=O)(O)O` [S1P, sphingosine 1-phosphate], the “concentration giving maximal barrier protective effect” value ([1]; HPAEC monolayers) was 1 µM and the “effect … (TER)” value [1, 4] was “rapid concentration-dependent TER increase”.
In the case of `CCCCCCCCCCCCCCCC(=O)OC[C@H](COP(=O)([O-])OCC[N+](C)(C)C)OC(=O)CCCC(=O)O` [PGPC], the “effect … on TER” value [1] is reported as “significantly and concentration-dependently decreased TER”.
With thrombin the “effect … (TER)” value [1, 4] was “abrupt decrease in TER” and the “TER recovery time after maximal TER decline” value ([1]; thrombin 50 nM, with or without OxPAPC 20 μg/ml, five experiments) was 115 min.
With `N#CC(=C(/N)Sc1ccccc1N)/C(C#N)=C(/N)Sc1ccccc1N` [UO-126] the “effect on OxPAPC-induced Erk-1,2 cascade activation/phosphorylation” value (Erk-1,2) was “completely abolished”.
For `CC(C)(C)n1nc(-c2ccc(Cl)cc2)c2c(N)ncnc21` [PP-2], the “effect on OxPAPC-induced FAK phosphorylation” value (FAK) was “attenuated” and the “effect on OxPAPC-induced paxillin phosphorylation” value (paxillin) was “attenuated”.
For platelet activating factor [PAF], the “barrier effect compared with OxPAPC” value [3] is given as “does not mimic barrier-protective OxPAPC effects”.
In the case of `CCCCC/C=C\C/C=C\C/C=C\C/C=C\CCCC(=O)O[C@H](COC(=O)CCCCCCCCCCCCCCC)COP(=O)([O-])OCC[N+](C)(C)C` [PAPC, 1-palmitoyl-2-arachidomoyl-sn-glycero-3-phosphorylcholine], the “effect … (TER)” value [1, 4] is reported as “did not exhibit significant effects”, the “Erk-1,2 activation” value (Erk-1,2; 20 μg/ml) is reported as “had no effect” and the “phosphorylation / activation of p38” value (p38) is reported as “without effect”. For the same compound, the “phosphorylation / activation of JNK” value (JNK; 20 μg/ml) was “without effect”, the protein tyrosine phosphorylation ([2]; 20 μg/ml) was “without effect” and the “PKC-mediated phosphorylation of endogenous substrates” value (PKC; phospho-PKC substrate immunoblot) was “did not significantly increase”. The “PKA-mediated phosphorylation of endogenous substrates / PKA activation” value (PKA) was “did not induce PKA activation”.
For `CCCCC/C=C\CC1/C(=C\C2OC2CCCC(=O)O[C@H](COC(=O)CCCCCCCCCCCCCCC)COP(=O)([O-])OCC[N+](C)(C)C)C(=O)CC1O` (stereo partly drawn) [PEIPC, 1-palmitoyl-2-(epoxyisoprostane E2)-sn-glycero-3-phosphocholine], the “co-elution with TER-increasing activity in HPLC-MS of fraction 2” value [1] was “co-eluted with TER increasing activity”.
In the case of `CCCCC/C=C\C/C=C\CCCCCCCC(=O)OC(COC(=O)CCCCCCCCCCCCCCC)COP(=O)([O-])OCC[N+](C)(C)C` (stereo not drawn) [PLPC, palmitoyl-linoleate phosphatidyl choline], the “effect … (TER)” value [1, 4] is reported as “did not exhibit significant effects”.
For `Cc1cc(C(C)(C)C)c(O)c(C(C)(C)C)c1` [BHT, butylated hydroxytoluene], the “effect of pretreatment on OxPAPC-induced TER increase” value [1] was “did not affect”, the “effect on OxPAPC-induced Erk-1,2 cascade activation/phosphorylation” value (Erk-1,2) was “same levels of Erk-1,2 activation” and the “effect of preincubation on OxPAPC-induced JNK activation” value (JNK; OxPAPC preincubated with BHT) was “same levels of JNK activation”. For the same compound, the “effect on OxPAPC-induced protein tyrosine phosphorylation” value [2] was “did not affect”.
With `CCCCCCCCCCCCCCCC(=O)OC[C@H](COP(=O)([O-])OCC[N+](C)(C)C)OC(=O)CCCC=O` [POVPC] the “effect … on TER” value [1] was “significantly and concentration-dependently decreased TER”.
